Structures can show the parent of a compound that is named as a salt.
Tests used:
[1] = system: respiratory syncytial virus Long strain; experiment: microbe, parasite or virus in culture; type: cell-based; conditions: for % cell protection from RSV at 4 µg/mL: human respiratory syncytial virus, 96 h, 4 μg/mL of compound, RSV Long strain-infected HEp-2 cells, compound added 1 hour post infection, 4 days, MTT
in vitro = conditions: human
[2] = system: HEp-2 (ATCC CCL 23) cells

Structure (SMILES)	% cell protection from RSV at 4 µg/mL [1] [%]	CC50 at 4 days (in vitro) [µM]	% Cell protection at 4 μg/mL [1] [%]	CC50 [2] [µM]	cell protection ([1]; control compound at 2.5 μg/mL (corresponding to 10.2 μM)) [%]
CS(=O)(=O)OCCn1c(Cn2nnc3ccccc32)nc2ccccc21 [Example 32, Methanesulfonic Acid, 2-(2-benzotriazol-1-ylmethyl-benzimidazol-1-yl)-ethyl ester]	60	71	–	–	–
OCCn1c(Cn2nnc3ccccc32)nc2ccccc21 [Example 31, 2-(2-Benzoatrizol-1-ylmethyl-benzimidazol-1-yl)-ethanol]	48	21	–	–	–
c1ccc(Cn2c(Cn3nnc4ccccc43)nc3ccccc32)cc1 [Example 46, 1-[(1-Phenylmethyl-1H-benzimidazol)-2-ylmethyl]-1H-benzotriazole]	53	97	–	–	–
c1cncc(Cn2c(Cn3nnc4ccccc43)nc3ccccc32)c1 [Example 47, 1-[1-(Pyridin-3-yl-methyl)-1H-benzimidazol-2-ylmethyl]-1H-benzotriazole]	40	250	–	–	–
NC(=O)CCn1c(Cn2nnc3ccccc32)nc2ccccc21 [Example 41, 3-(2-Benzotriazol-1-ylmethyl-1-H-benzimidazol-1-yl)-propionamide]	75	4.3	–	–	–
CC(C)CCn1c(Cn2nc3ccccc3n2)nc2ccccc21 [Example 61, 2-[1-(3-methylbutyl)-1H-benzimidazol-2-ylmethyl]-2H-benzotriazole Dihydrochloride]	78	27	–	–	–
CSCCn1c(Cn2nnc3ccccc32)nc2ccccc21 [Example 24, 1-[1-(2-Methylthio-ethyl)-1H-benzimidazol-2-ylmethyl]-1H-benzotriazole]	100	165	–	–	–
c1ccc(CCn2c(Cn3nnc4ccccc43)nc3ccccc32)cc1 [Example 48, 1-[1-(2-Phenethyl)-1-H-benzimidazol-2-ylmethyl)-1H-benzotriazole]	95	2.6	–	–	–
OC(Cn1c(Cn2nnc3ccccc32)nc2ccccc21)c1ccccc1 (stereo not drawn) [Example 50, 2-[(2-Benzotriazol-1-ylmethyl)-benzimidazol-1-yl]-1-phenyl-ethanol]	94	36	–	–	–
N=C(N)CCn1c(Cn2nnc3ccccc32)nc2ccccc21 [Example 45, 3-(2-Benzotriazol-1-ylmethyl-benzimidazol-1-yl)-1-imino-1propyl-amine Diacetate]	74	6.3	–	–	–
O=C(O)CCn1c(Cn2nnc3ccccc32)nc2ccccc21 [Example 43]	82	> 309	–	–	–
CC(=O)CCn1c(Cn2nnc3ccccc32)nc2ccccc21 [Example 37]	–	–	100	59	–
CC(C)CCn1c(Cn2nnc3ccccc32)nc2ccccc21 [Example 20, 1-[1-(3-Methylbutyl)-1H-benzimidazol-2-ylmethyl)-1H-benzotriazole]	87	40	–	–	–
CS(=O)(=O)CCn1c(Cn2nnc3ccccc32)nc2ccccc21 [Example 26, 1-[1-(2-Methylsulfonyl-ethyl)-1H-benzimidazol-2-ylmethyl]-1H-benzotriazole]	100	200	–	–	–
C[S+]([O-])CCn1c(Cn2nnc3ccccc32)nc2ccccc21 (stereo not drawn) [Example 25, 1-[1-(2-Methylsulfinyl-ethyl)-1H-benzimidazol-2-ylmethyl]-1H-benzotriazole]	100	56	–	–	–
CC(CCn1c(Cn2nnc3ccccc32)nc2ccccc21)CC(C)(C)C (stereo not drawn) [Example 23, 1-[1-(3,5,5-Trimethyl-hexyl)-1H-benzimidazol-2-ylmethyl]-1H-benzotriazole]	98	59	–	–	–

Structure (SMILES)	% cell protection from RSV at 4 µg/mL [1] [%]	CC50 at 4 days (in vitro) [µM]	% Cell protection at 4 μg/mL [1] [%]	CC50 [2] [µM]	cell protection ([1]; control compound at 2.5 μg/mL (corresponding to 10.2 μM)) [%]
CC(C)CCCn1c(Cn2nnc3ccccc32)nc2ccccc21 [Example 22, 1-[1-(4-Methylpentyl)-1H-benzimidazol-2-ylmethyl]-1H-benzotriazole]	75	15	–	–	–
O=CCCn1c(Cn2nnc3ccccc32)nc2ccccc21 [Example 30, 1-[(2-Benzotriazol-1-ylmethyl)-1-H-benzimidazol-1-yl]-propionaldehyde]	90	108	–	–	–
c1ccc2c(c1)nnn2Cc1nc2ccccc2n1CC1OCCO1 [Example 28]	61	29	–	–	–
c1ccc2c(c1)nnn2Cc1nc2ccccc2n1CCC1OCCO1 [Example 29]	98	185	–	–	–
O=C(Cn1c(Cn2nnc3ccccc32)nc2ccccc21)c1ccccc1 [Example 49, 2-[(2-Benzotriazol-1-ylmethyl)-benzimidazol-1-yl]-1-phenyl-ethanone]	76	18	–	–	–
N/C(CCn1c(Cn2nnc3ccccc32)nc2ccccc21)=N\O [Example 44, N-[3-(2-Benzotriazol-1-ylmethyl-benzimidazol-1-yl)-1-imino-propyl)-hydroxyamine]	91	16	–	–	–
CC(C)(C)OC(=O)CCn1c(Cn2nnc3ccccc32)nc2ccccc21 [Example 42]	100	168	–	–	–
[N-]=[N+]=NCCn1c(Cn2nnc3ccccc32)nc2ccccc21 [Example 33, 1-[1-(2-Azido-ethyl)-1-H-benzimidazol-2-ylmethyl)-1H-benzotriazole]	82	75	–	–	–
CC(O)CCn1c(Cn2nnc3ccccc32)nc2ccccc21 (stereo not drawn) [Example 38]	100	> 309	–	–	–
CC(CCn1c(Cn2nnc3ccccc32)nc2ccccc21)=NO [Example 39]	100	> 33	–	–	–
CNC(=O)Cn1c(Cn2nnc3ccccc32)nc2ccccc21 [Example 35, 2-(2-Benzotriazol-1-ylmethyl-benzimidazol-1-yl)-N-methyl acetamide]	58	230	–	–	–
CCCCn1c(Cn2nnc3ccccc32)nc2ccccc21 [Example 19, 1-(1-Butyl-1H-benzimidazol-2-ylmethyl)-1H-benzotriazole]	95	12	–	–	–
CC(C)=CCn1c(Cn2nnc3ccccc32)nc2ccccc21 [Example 21, 1-[1-(3-Methyl-2-butenyl)-1H-benzimidazol-2-ylmethyl]-1H-benzotriazole]	98	69	–	–	–
CC(C)(C)C(O)Cn1c(Cn2nnc3ccccc32)nc2ccccc21 (stereo not drawn) [Example 27, 1-(2-Benzotriazol-1-ylmethyl-1-H-benzimidazol-1-yl)-3,3-dimethylbutan-2-ol]	44	117	–	–	–
CC(N)CCn1c(Cn2nnc3ccccc32)nc2ccccc21 (stereo not drawn) [Example 40, 3-(2-Benzotriazol-1-ylmethyl-benzimidazol-1-yl)-1-methyl-propylamine]	96	8.5	–	–	–
NC(=O)c1ncn([C@@H]2O[C@H](CO)[C@@H](O)[C@H]2O)n1 [Ribavirin, reference compound]	–	–	–	–	100

Source: patent US7030140B2, “Substituted benzimidazole antiviral agents” (Bristol-Myers Squibb Company, priority 1998, dated 2006)
